Data as given in publication PMC6630837 (Pharmaceuticals, 2019).
Entries after “also recorded” stand apart in the source; their conditions may differ. Read-outs that look alike come from different tables or passages of the source.

Assays:
[1] = test system: SH-SY5Y neuroblastoma cells; assay: Cytotoxic activity of compounds alone, MTT cell viability assay; details: 24 h
Method: Neuroprotective assays in human neuroblastoma (SH-SY5Y) cells. SH-SY5Y cells were grown in Dulbecco’s Modified Eagle Medium (DMEM, Gibco, Life Technologies) supplemented with 10% fetal bovine serum (FBS, Biochrom GmbH) and 1% Penicillin-Streptomycin (Gibco, Life Technologies) in a humidified incubator at 37 °C, 5% CO2. For the neuroprotective activity assay, undifferentiated SGSY-5Y cells were plated onto 96-well flat-bottomed microtiter plates at a density of 1 × 10^4 cells/well in DMEM supplemented with 2% FBS and preincubated for 24 h at 37 °C, 5% CO2. Compounds (stored as 10 mM solutions in DMSO at −20 °C) were then added to achieve a final concentration of 50 μM and, after 30 min, cells were incubated in the presence or absence of 20 μM Aβ protein fragment 1-42 (Sigma-Aldrich, dissolved in DMSO and stored in 2 mM aliquots at −20 °C) or 100 μM of H2O2 (Sigma-Aldrich, dissolved to 10 mM in 0.9% NaCl aqueous solution immediately prior to the assay) overnight at 37 °C, 5% CO2. […] The following morning, 20 μL of a 5 mg/mL solution of 3-(4,5-dimethylthiazol-2-yl)-2,5-diphenyltetrazolium bromide (MTT, Sigma-Aldrich) in PBS (Gibco, Life Technologies) was added to each well and the plates were further incubated for 4 h at 37 °C, followed by the addition of DMSO (200 μL) to each well in order to dissolve the resulting formazan crystals. After 2 h incubating at 37 °C, the optical density (OD) at 540 nm (with a 620 nm reference filter) was measured in an Amersham Biosciences Biotrak II Plate Reader. The percentage of MTT reduction was determined according to Equation (1). […] Differences between experimental conditions were compared for statistical significance by one-way ANOVA followed by a Tukey’s post-test, an analysis carried out using GraphPad Prism Software (LA Jolla, CA, USA). Differences were considered significant when P < 0.05. In order to exclude direct MTT reduction, compounds were also tested in (a) the absence of cells and (b) in the absence of both cells and culture medium, using the same experimental conditions described above. (2) MTT Reduction (% of Control)=[ODsample−ODmedium/ODcell control−ODmedium] × 100 […]
Tabl e S2. Cytotoxic activity of each compound assessed in SH-SY5Y neuroblastoma cells via an MTT cell viability assay.a Comp ound Nr. MTT reduction (% control) p-va l u e vs . untreated cell control (unpai red t-t es t) […]
a Cells were incubated for 24 h at 37 °C, in the presence (50 μM) or absence of each compound.

[2] = test system: SH-SY5Y human neuroblastoma cells; assay: Neuroprotection against H2O2-induced toxicity, MTT cell viability assay; format: cell-based; details: 50 μM compound, 100 μM H2O2, 24 h, 37 °C
From the text: Neuroprotective activity assays against H2O2-induced toxicity. On the basis of previously described protocols, the flavones and analogues herein synthesized were screened for their neuroprotective effects against H2O2-induced oxidative stress and neuronal damage in SH-SY5Y human neuroblastoma cells by means of a thiazolyl blue tetrazolium bromide (MTT) reduction-based cell viability assay.
Neuroprotective assays in human neuroblastoma (SH-SY5Y) cells. […] Differences were considered significant when P < 0.05.

[3] = LogD7.4 determination (octan-1-ol/phosphate buffer, LC-MS); format: physicochemical
Method: LogD7.4 determination. The in-silico prediction tool ALOGPS [4] was used to estimate the octanol-water partition coefficients (log P) of the compounds. […] For each category, two different ratios (volume of octan-1-ol to volume of buffer) were defined as experimental parameters (Table 2).
Equal amounts of phosphate buffer (0.1 M, pH 7.4) and octan-1-ol were mixed and shaken vigorously for 5 min to saturate the phases. The mixture was left until separation of the two phases, and the buffer was retrieved. Stock solutions of the test compounds were diluted with buffer to a concentration of 1 μM. For each compound, three determinations per octan-1-ol:buffer ratio were performed in different wells of a 96-well plate. The respective volumes of buffer-containing analyte (1 μM) were pipetted to the wells and covered by saturated octan-1-ol according to the chosen volume ratio. […] The aqueous phase was transferred to a 96-well plate for analysis by liquid chromatography-mass spectrometry (LCMS, see below).
Results are presented as the mean ± SD of three independent experiments.
LC-MS measurements. […] The system was controlled with the Agilent MassHunter Workstation Data Acquisition software (version B.01.04). The column used was an AtlantisR T3 C18 column (2.1 × 50 mm) with a 3 μm-particle size (Waters Corp., Milford, MA, USA). The mobile phase consisted of eluent A: 10 mM ammonium acetate, pH 5.0 in 95:5, H2O:MeCN; and eluent B: MeCN containing 0.1% formic acid. The flow rate was maintained at 0.6 mL/min. […] MS parameters such as fragmentor voltage, collision energy, and polarity were optimized individually for each drug, and the molecular ion was followed for each compound in the multiple reaction monitoring mode. The concentrations of the analytes were quantified by the Agilent Mass Hunter Quantitative Analysis software (version B.01.04).

[4] = molecular target: acetylcholinesterase (AChE) (Electrophorus electricus, UniProt O42275); assay: Acetylcholinesterase inhibition, Ellman's colorimetric assay; format: biochemical; details: 100 µM compound; for inhibition at 100 µM: read-out: AChE inhibitory efficacy (percentage of inhibition)
Method: For cholinesterase inhibition tests (acetylcholinesterase (AChE, electrophorus
was kept within 1.25% cuvette concentration.
AChE and at 18.2 µM concentration for BuChE. […]

[5] = molecular target: T1, butyrylcholinesterase (BuChE) (Equus caballus, UniProt P81908); assay: biochemical; details: for inhibition at 100 µM: read-out: BuChE inhibitory efficacy (percentage of inhibition)
T1 construct: (BuChE, equine serum); from tissue; host or cells: equine serum
Method: Experimental procedures for cholinesterase inhibition a s sa y s. For cholinesterase inhibition tests (acetylcholinesterase (AChE, electrophorus
el ec t r ic u s) a n d b ut yr ylcholinesterase (BuChE, equine serum), the Ellman’s cholorimetric assay1 was followed, with minor modifications. DMSO
was kept within 1.25% cuvette concentration. The chromogenic agent DTNB [5,5’-dithiobis(2-nitrobenzoic acid)] was fixed at 0.975 mM
con centration; 0. 1 M phosphate buffer (pH 8. 0) was employed, T = 25 °C, and the reaction was monitored for 125 s. […]
of inhibition, the substrate concentration (acetylthiocholine iodide for AChE; S- butyr ylthiocholine iodide for BuChE) was fixed at 29 µM for
AChE and at 18.2 µM concentration for BuChE.
Lineweaver-Burk plot (or double reciprocal plot, 1/V vs . 1/ [S ]) wa s u se d for estimating both, the mode of inhibition and the inhibition constants […]
Competitive inhibition (inhibitor only bonds the free enzyme):
KKiiii = [II ]KKMM iiaaaa
M i xe d inhibition (inhibitor binds both, the free and the complexed enzyme) :
Uncompetitive (the inhibitors only binds the complexed enzyme):
N on -competitive (inhibitor binds both the free enzyme and the complexed enzyme with equal affinity) :
Table S3. […]
of the synthesized flavone analogues at 100 µ M.
C omp ou n d N o. AChE B uChE

[6] = 50 μM compound alone, 37 °C, 0.5% DMSO, SH-SY5Y
[7] = octan-1-ol/phosphate buffer pH 7.4, 25 °C
[8] = octan-1-ol/phosphate buffer, pH 7.4, octan-1-ol/phosphate buffer pH 7.4, 25 °C, read-out: Log D7.4 (partition coefficient at pH 7.4)

T1 sequence (P81908 whole entry): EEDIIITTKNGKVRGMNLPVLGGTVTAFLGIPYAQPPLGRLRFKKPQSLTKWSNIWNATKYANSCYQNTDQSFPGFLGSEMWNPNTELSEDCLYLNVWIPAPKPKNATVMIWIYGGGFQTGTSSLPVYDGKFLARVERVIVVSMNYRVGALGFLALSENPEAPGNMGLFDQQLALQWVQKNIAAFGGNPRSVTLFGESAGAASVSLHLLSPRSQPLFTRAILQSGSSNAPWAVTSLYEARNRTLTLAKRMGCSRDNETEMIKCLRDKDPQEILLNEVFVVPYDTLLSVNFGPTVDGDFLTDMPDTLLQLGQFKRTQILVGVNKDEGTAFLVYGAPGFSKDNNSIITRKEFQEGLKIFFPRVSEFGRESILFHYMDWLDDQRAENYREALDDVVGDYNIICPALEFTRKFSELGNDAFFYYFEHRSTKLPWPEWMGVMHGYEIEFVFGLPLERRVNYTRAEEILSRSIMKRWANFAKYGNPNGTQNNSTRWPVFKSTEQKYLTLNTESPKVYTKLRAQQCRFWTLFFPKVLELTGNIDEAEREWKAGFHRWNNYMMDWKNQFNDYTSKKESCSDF
acetylcholinesterase (AChE), sequence (O42275 24-633): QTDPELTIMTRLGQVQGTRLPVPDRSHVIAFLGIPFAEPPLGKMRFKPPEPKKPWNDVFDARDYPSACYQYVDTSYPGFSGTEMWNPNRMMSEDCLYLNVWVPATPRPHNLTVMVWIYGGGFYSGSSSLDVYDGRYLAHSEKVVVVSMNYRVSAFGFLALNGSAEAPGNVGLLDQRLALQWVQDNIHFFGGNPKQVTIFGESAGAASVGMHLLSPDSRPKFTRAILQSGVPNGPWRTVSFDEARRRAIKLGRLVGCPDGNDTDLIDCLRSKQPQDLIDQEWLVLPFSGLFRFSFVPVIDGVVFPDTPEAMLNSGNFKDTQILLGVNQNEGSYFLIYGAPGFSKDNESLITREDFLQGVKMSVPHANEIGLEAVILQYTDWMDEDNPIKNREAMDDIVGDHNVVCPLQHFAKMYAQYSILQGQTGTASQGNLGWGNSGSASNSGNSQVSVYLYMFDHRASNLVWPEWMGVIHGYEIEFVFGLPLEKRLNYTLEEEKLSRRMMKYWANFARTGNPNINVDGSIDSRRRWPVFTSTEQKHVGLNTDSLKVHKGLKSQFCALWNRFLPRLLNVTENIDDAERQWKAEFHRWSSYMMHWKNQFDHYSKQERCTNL

| Compound | MTT reduction (% control) [1, 6] | Neuroprotective effect against H2O2-induced toxicity (MTT cell viability) [2] | inhibition at 100 µM [5] | logD [3, 8] | other results |
| --- | --- | --- | --- | --- | --- |
| 2-(Furan-2-yl)-8-(β-D-glucopyranosyl)-5,7-dihydroxy-4H-chromen-4-one [Compound 21] | 131.5 ± 11.0% | able to rescue cells from oxidative damage caused by H2O2; also recorded: able to produce a significant improvement in cell viability | – | – | Log D7.4 (partition coefficient at pH 7.4) [3, 7]: −0.2 ± 0.1 |
| 8-(β-D-Glucopyranosyl)-5,7-dihydroxy-4′-(pyrrolidin-1-yl)flavone [Compound 20] | 219.9 ± 16.9% | – | – | – | Log D7.4 (partition coefficient at pH 7.4) [3, 7]: 1.8 ± 0.2 |
| O=c1cc(-c2ccccc2)oc2cc(O)cc(O)c12 [Compound 1, chrysin, reference compound] | 96.2 ± 26.9% | absence of significant effects | 64% | – | logD ([3]; octan-1-ol/phosphate buffer pH 7.4, 25 °C, read-out: Log D7.4 (partition coefficient at pH 7.4)): 3.6 ± 0.4; inhibition at 100 µM [4]: 18%; Ki [5]: 32 ± 4 µM; Butyrylcholinesterase inhibition, ranking in words ([5]; 100 µM compound): the most active butyrylcholinesterase inhibitor; Mode of inhibition ([5]; BuChE, Lineweaver-Burk plot): Non-* co mp etit iv e in hi bit io n |
| O=c1cc(C2CC2)oc2cc(O)cc(O)c12 [Compound 4, 2-Cyclopropyl-5,7-dihydroxy-4H-chromen-4-one] | 140.7 ± 12.0% | the increase was not significant | 30% | 2.9 ± 0.1 | inhibition at 100 µM [4]: 24% |
| O=c1cc(C2CCC2)oc2cc(O)cc(O)c12 [Compound 5, 2-Cyclobutyl-5,7-dihydroxy-4H-chromen-4-one] | 184.6 ± 30.2% | the increase was not significant | – | > 2.5 | – |
| CCC(C)c1cc(=O)c2c(O)cc(O)cc2o1 (stereo not shown) [Compound 6, 5,7-Dihydroxy-2-(1-methylpropyl)-4H-chromen-4-one] | 109.9 ± 18.7% | the increase was not significant | 46% | > 2.5 | AChE inhibitory efficacy (percentage of inhibition) [4]: n.i .; Butyrylcholinesterase inhibition, ranking in words ([5]; 100 µM compound): the most promising one; Mode of inhibition ([5]; BuChE, Lineweaver-Burk plot): Mixed inhibition; Ki ([5]; BuChE, Lineweaver-Burk plot, read-out: Kia (inhibition constant)): 44 ± 17 µM; Ki ([5]; BuChE, Lineweaver-Burk plot, read-out: Kib (inhibition constant)): 36 ± 8 µM |
| O=c1cc(-c2ccc(N3CCCC3)cc2)oc2cc(O)cc(O)c12 [Compound 9, 5,7-Dihydroxy-4′-(pyrrolidin-1-yl)flavone] | 163.6% ± 72.6 | able to produce statistically significant differences when compared to H2O2 controls | 32% | – | inhibition at 100 µM [4]: 27% |
| CN(C)c1ccc(-c2cc(=O)c3c(O)cc(O)cc3o2)cc1 [Compound 10, 4′-Dimethylamino-5,7-dihydroxyflavone] | 191.5 ± 22.9% | not significantly active | – | 3.4 ± 0.2 | – |
| O=c1cc(-c2ccco2)oc2cc(O)cc(O)c12 [Compound 11, 2-(Furan-2-yl)-5,7-dihydroxy-4H-chromen-4-one] | 129.7 ± 9.06% | contrarily | – | > 2.5 | – |
| O=c1cc(-c2ccncc2)oc2cc(O)cc(O)c12 [Compound 12, 5,7-Dihydroxy-2-(pyridin-4-yl)-4H-chromen-4-one] | 233.7 ± 15.7% | contrarily | – | – | – |
| O=c1ccoc2cc(O)cc(O)c12 [Compound 13, 5,7-dihydroxychromen-4-one, reference compound] | 71.2 ± 48.1% | no significant differences | – | 2.4 ± 0.1 | – |
| O=c1cc(-c2ccccc2)oc2c([C@@H]3O[C@H](CO)[C@@H](O)[C@H](O)[C@H]3O)c(O)cc(O)c12 [Compound 16, 8-(β-D-Glucopyranosyl)-5,7-dihydroxyflavone] | 142.0 ± 38.5% | absence of significant effects | – | 0.8 ± 0.3 | inhibition at 100 µM [4]: 20%; BuChE inhibitory efficacy (percentage of inhibition) ([5]; 100 µM compound): n.i . |
| O=c1cc(-c2ccc(O)cc2)oc2c([C@@H]3O[C@H](CO)[C@@H](O)[C@H](O)[C@H]3O)c(O)cc(O)c12 [Compound 17, 8-(β-D-Glucopyranosyl)-5,7,4′-trihydroxyflavone] | – | able to rescue cells from oxidative damage caused by H2O2; also recorded: able to fully recover cell viability | – | – | MTT reduction (% control) ([1]; human, 50 μM): 85.0 ± 38.5%; logD ([3]; pH 7.4, Log D7.4 (partition coefficient at pH 7.4)): 0.1 ± 0.1 |
| O=c1ccoc2c([C@@H]3O[C@H](CO)[C@@H](O)[C@H](O)[C@H]3O)c(O)cc(O)c12 [Compound 22, 8-(β-D-Glucopyranosyl)-5,7-dihydroxy-4H-chromen-4-one] | 149.2 ± 21.6% | no significant differences | 19% | -2 ± 0.2 | AChE inhibitory efficacy (percentage of inhibition) [4]: n.i . |
